Four compounds from ChEMBL document CHEMBL6083246 (Bioorg Med Chem, 2024) can be followed below.

Data set [1] deals with RAW264.7. The experiment in a line: Antiinflammatory activity in LPS induced mouse RAW264.7 cells reduction in ROS production incubated for 24 hrs by DCFH-DA staining based microplate reader analysis. It is filed as functional, cell-based.
For data set [2], the system named is RAW264.7. The experiment in a line: Cytotoxicity against mouse RAW264.7 cells assessed as reduction in cell viability at < 640 uM incubated for 24 hrs by CCK8 assay. As to conditions: raw264.7, 24 h. Format: toxicity, cell-based. Background: Tetrazolium dyes change colour on reduction, which living cells bring about.
Data set [3] has as its target Aldo-keto reductase family 1 member B1 (Mus musculus) (UniProt P45376). The experiment in a line: Induction of thermal stabilization of AKR1B1 in mouse RAW264.7 cells at 50 uM at 45 to 75 degreeC incubated for 2 hrs by cellular thermal shift assay. Format: cell-based.
Data set [4] deals with RAW264.7. The experiment in a line: Cytotoxicity against mouse RAW264.7 cells assessed as reduction in cell viability at 1080 uM incubated for 24 hrs by CCK8 assay. It is filed as toxicity, cell-based. The settings on record: raw264.7, 24 h.
Data set [5] has as its system RAW264.7. The experiment in a line: Antiinflammatory activity in LPS induced mouse RAW264.7 cells assessed as reduction in NO production incubated for 24 hrs by Griess reagent based assay. Format: functional, cell-based. In general terms: Nitrite, measured by Griess reagent, commonly stands in for NO production.
Data set [6] relates to RAW264.7. The experiment in a line: Antiinflammatory activity in LPS induced mouse RAW264.7 cells assessed as reduction in IL-6 production at 50 uM incubated for 24 hrs by ELISA. Format: functional, cell-based. (In an ELISA, binding on a coated surface is turned into a signal by an enzyme label.)
In data set [7] the test system is RAW264.7. The experiment in a line: Antiinflammatory activity in LPS induced mouse RAW264.7 cells assessed as reduction in TNFalpha production at 50 uM incubated for 24 hrs by ELISA. Format: functional, cell-based.
Data set [8] has as its system RAW264.7. The experiment in a line: Antiinflammatory activity in LPS induced mouse RAW264.7 cells assessed as reduction in NO production at 50 uM incubated for 24 hrs by Griess reagent based assay. It is filed as functional, cell-based.
Data set [9] has as its system RAW264.7. The experiment in a line: Antiinflammatory activity in LPS induced mouse RAW264.7 cells reduction in ROS production at 50 uM incubated for 24 hrs by DCFH-DA staining based microplate reader analysis. It is filed as functional, cell-based.

The structures appear in SMILES notation. Calls of active or inactive are those of the source. No cut-off for these calls is given here.

Consider `O=C(/C=C/c1ccc(O)c(O)c1)O[C@@H]1C[C@@](O)(C(=O)O)C[C@@H](O)[C@@H]1O`, for which the Activity entry in [1] is “Dose-dependent-effect”; in data set [2], “Non-toxic”; in data set [4], “Toxic”; in [5], “Dose-dependent-effect”. For the same compound, in [3], the result was Active.

For the compound `CC(/C=C1\SC(=S)N(CC(=O)O)C1=O)=C\c1ccccc1`, the outcome in data set [6] and in data set [7] was Active.

For the compound `O=C(/C=C/c1ccc(O)c(O)c1)O[C@@H]1C[C@](O)(C(=O)O)C[C@@H](O)[C@H]1O` [CHLOROGENIC ACID], the Activity result in data set [1] is “Dose-dependent-effect”; in data set [2], “Non-toxic”; in data set [6] it was “Active; Showed Higher Activity Compared To 4-Cqa And 5-Cqa”; in [4], “Toxic”; in data set [8], “Active; Showed Higher Activity Compared To 4-Cqa And 5-Cqa”; in [5] it was “Dose-dependent-effect”. In [7], the Activity result is recorded as “Active; Showed Higher Activity Compared To 4-Cqa And 5-Cqa”. Also, the result in data set [3] and in [9] was Active.

Consider `O=C(/C=C/c1ccc(O)c(O)c1)O[C@H]1[C@H](O)C[C@](O)(C(=O)O)C[C@H]1O`, for which the Activity entry in data set [1] was “Dose-dependent-effect”; in data set [2] it was “Non-toxic”; in [4], “Toxic”; in [5] it was “Dose-dependent-effect”; in data set [7], “Active; Showed Higher Activity Compared To 5-Cqa”. Further, the result in data set [3] was Active.
